The subject of data set [1] is MCF7. In words: Cytotoxicity against human MCF7 cells by MTT assay. The data set is classed as functional, cell-based.
Data set [2] concerns T47D. In words: Cytotoxicity against human T47D cells by MTT assay. The data set is classed as functional, cell-based. On the technique in general: Tetrazolium dyes change colour on reduction, which living cells bring about.
Data set [3] has as its system MDA-MB-231. In words: Cytotoxicity against human MDA-MB-231 cells by MTT assay. The data set is classed as functional, cell-based.
Data set [4] deals with HCC1954. Description: Cytotoxicity against human HCC1954 cells by MTT assay. The format is functional, cell-based.
The test system of a further data set is SK-BR-3. In words: Cytotoxicity against human SKBR3 cells by MTT assay. The format is functional, cell-based.
Data set [5] concerns HCC1954. In words: Anti-tumor activity against HER2-amplified human HCC1954 cells xenografted in NOD/SCID mouse assessed as tumor size at 10 mg/kg, ip administered once daily for 18 days measured after 1 hr last dose (reference value: 497 +/- 82 mm3). The format is functional.
Data set [6] relates to MCF7. Description: Cytotoxicity against human MCF7 cells at 5 uM by MTT assay. The format is functional.
Data set [7] deals with MCF7. In words: Cytotoxicity against human MCF7 cells at 10 uM by MTT assay. The data set is classed as functional.
For data set [8], the system named is T47D. In words: Cytotoxicity against human T47D cells at 5 uM by MTT assay. The data set is classed as functional.
The test system of data set [9] is T47D. Description: Cytotoxicity against human T47D cells at 10 uM by MTT assay. The data set is classed as functional.
Data set [10] has as its system MDA-MB-231. Description: Cytotoxicity against human MDA-MB-231 cells at 5 uM by MTT assay. The data set is classed as functional.
Data set [11] has as its system MDA-MB-231. In words: Cytotoxicity against human MDA-MB-231 cells at 10 uM by MTT assay. The format is functional.
For data set [12], the system named is HCC1954. In words: Cytotoxicity against human HCC1954 cells at 5 uM by MTT assay. The data set is classed as functional.
Data set [13] has as its system HCC1954. Description: Cytotoxicity against human HCC1954 cells at 10 uM by MTT assay. The data set is classed as functional.
Data set [14] deals with Cyclin-dependent kinase 5/CDK5 activator 1 (Homo sapiens) (UniProt Q00535+Q15078). Description: Inhibition of human CDK5/p25 using histone H1 as substrate in presence of [gamma33P]ATP after 30 mins by scintillation counting method. The data set is classed as protein-complex assay.
The target of data set [15] is Dual specificity protein kinase CLK1 (Mus musculus) (UniProt P22518). Description: Inhibition of mouse CLK1.
The target of data set [16] is Dual specificity tyrosine-phosphorylation-regulated kinase 1A (Rattus norvegicus) (UniProt Q63470). In words: Inhibition of rat DYRK1A using myelin basic protein as substrate in presence of [gamma33P]ATP after 30 mins by scintillation counting method.
For data set [17], the target named is Glycogen synthase kinase-3 (Sus scrofa) (UniProt B2LUN4+I6LNT8). In words: Inhibition of pig GSK3alpha/beta using GS-1 as substrate in presence of [gamma33P]ATP after 30 mins by scintillation counting method.
The next data set is filed under the species Sus scrofa. In words: Inhibition of pig CK1delta/epsilon.
In data set [18] the target is T1, Serine/threonine-protein kinase haspin (Homo sapiens) (UniProt Q8TF76).
T1 sequence (whole entry): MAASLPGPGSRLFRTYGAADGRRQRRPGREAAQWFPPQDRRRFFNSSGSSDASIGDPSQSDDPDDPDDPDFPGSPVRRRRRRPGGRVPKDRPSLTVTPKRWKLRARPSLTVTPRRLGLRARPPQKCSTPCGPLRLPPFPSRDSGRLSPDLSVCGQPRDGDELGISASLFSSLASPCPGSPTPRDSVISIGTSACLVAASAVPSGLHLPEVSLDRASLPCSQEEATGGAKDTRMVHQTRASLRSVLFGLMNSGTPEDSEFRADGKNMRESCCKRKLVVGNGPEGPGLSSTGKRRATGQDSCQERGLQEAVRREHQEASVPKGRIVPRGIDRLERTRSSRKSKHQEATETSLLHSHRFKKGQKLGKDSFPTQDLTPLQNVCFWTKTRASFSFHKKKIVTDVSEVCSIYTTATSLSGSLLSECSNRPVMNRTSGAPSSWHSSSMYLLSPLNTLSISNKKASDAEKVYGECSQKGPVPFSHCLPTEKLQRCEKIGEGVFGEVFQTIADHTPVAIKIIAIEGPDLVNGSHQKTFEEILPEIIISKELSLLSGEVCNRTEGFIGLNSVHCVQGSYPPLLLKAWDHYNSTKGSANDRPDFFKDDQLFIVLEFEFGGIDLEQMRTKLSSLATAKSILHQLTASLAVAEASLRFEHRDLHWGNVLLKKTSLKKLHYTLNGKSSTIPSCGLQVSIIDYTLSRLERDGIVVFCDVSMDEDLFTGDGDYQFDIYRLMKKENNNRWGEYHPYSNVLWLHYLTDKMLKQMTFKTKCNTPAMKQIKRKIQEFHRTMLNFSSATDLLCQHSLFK
In words: Inhibition of human HASPIN.

Data set [19] addresses Aurora kinase B/Inner centromere protein (Homo sapiens) (UniProt Q96GD4+Q9NQS7). Description: Inhibition of human AURKB/INCENP. The format is protein-complex assay.
Data set [20] has as its target Receptor-interacting serine/threonine-protein kinase 3 (Homo sapiens) (UniProt Q9Y572). Description: Inhibition of human RIPK3.
Data set [21] concerns the target Vascular endothelial growth factor receptor 2 (Homo sapiens) (UniProt P35968). In words: Inhibition of recombinant human GST-tagged VEGFR-2 (789-end residues) transphosphorylation activity expressed in baculovirus infected Sf9 cells using poly[Glu:Tyr] (4:1) as substrate after 60 mins.
Data set [22] deals with Platelet-derived growth factor receptor beta (Homo sapiens) (UniProt P09619). Description: Inhibition of recombinant human GST-tagged PDGFR-beta (557-end residues) transphosphorylation activity expressed in baculovirus infected Sf9 cells using poly[Glu:Tyr] (4:1) as substrate after 60 mins.
Data set [23] has as its target Mast/stem cell growth factor receptor Kit (Homo sapiens) (UniProt P10721). In words: Inhibition of recombinant human GST-tagged KIT (544-end residues) transphosphorylation activity expressed in baculovirus infected Sf9 cells using poly[Glu:Tyr] (4:1) as substrate after 60 mins.
Data set [24] addresses Receptor-type tyrosine-protein kinase FLT3 (Homo sapiens) (UniProt P36888). In words: Inhibition of recombinant human GST-tagged FLT3 (571 to 993 residues) transphosphorylation activity expressed in baculovirus infected Sf9 cells using poly[Glu:Tyr] (4:1) as substrate after 60 mins.
Data set [25] deals with Phosphatidylinositol 4,5-bisphosphate 3-kinase catalytic subunit alpha isoform (Homo sapiens, UniProt P42336). Description: Inhibition of PI3Kalpha catalytic domain (unknown origin) using PIP2 liposomes as substrate in presence of biotin-labeled PIP3 and GST-GRP1-PH by streptavidin-HRP based assays.
Data set [26] in a line: Cmax in NOD/SCID mouse at 0.5 mg/kg, po administered as single dose by LC-MS/MS method. The data set is classed as ADME, organism-based. To be noted: in vivo. Further details: dose 0.5 mg/kg, route oral.
Data set [27] is described as follows: Cmax in NOD/SCID mouse at 0.5 mg/kg, ip administered as single dose by LC-MS/MS method. On the set-up: dose 0.5 mg/kg, route intraperitoneal. Conditions: in vivo. The format is ADME, organism-based.
A short description of data set [28]: Tmax in NOD/SCID mouse at 0.5 mg/kg, po administered as single dose by LC-MS/MS method. The format is ADME, organism-based. To be noted: in vivo.
A short description of data set [29]: Tmax in NOD/SCID mouse at 0.5 mg/kg, ip administered as single dose by LC-MS/MS method. Conditions: in vivo. The data set is classed as ADME, organism-based.
Data set [30] in a line: AUC (0 to 8 hrs) in NOD/SCID mouse at 0.5 mg/kg, po administered as single dose by LC-MS/MS method. The format is ADME, organism-based. Further details: time < 8 hr, dose 0.5 mg/kg, route oral. Conditions: in vivo.
Data set [31] is described as follows: AUC (0 to 8 hrs) in NOD/SCID mouse at 0.5 mg/kg, ip administered as single dose by LC-MS/MS method. The data set is classed as ADME, organism-based. Further details: dose 0.5 mg/kg, time < 8 hr, route intraperitoneal. Conditions: in vivo.
Data set [32] deals with Mus musculus. In words: Toxicity in NOD/SCID mouse assessed as phenotypic changes at 0.5 mg/kg, po administered as single dose. The format is organism-based. Conditions: in vivo.
Data set [33] deals with Mus musculus. Description: Toxicity in NOD/SCID mouse assessed as phenotypic changes at 0.5 mg/kg, ip administered as single dose. Conditions: in vivo. The format is organism-based.

The results in this text go back to ChEMBL document CHEMBL4000195, “Design and synthesis of novel 7-aminosubstituted pyrido[2,3-b]pyrazines exhibiting anti-breast cancer activity” (Eur J Med Chem, 2017).

The source made the active and inactive calls. The rule behind the calls is not given here.

Sequence of Cyclin-dependent kinase 5/CDK5 activator 1 (Homo sapiens) (Q00535 whole entry): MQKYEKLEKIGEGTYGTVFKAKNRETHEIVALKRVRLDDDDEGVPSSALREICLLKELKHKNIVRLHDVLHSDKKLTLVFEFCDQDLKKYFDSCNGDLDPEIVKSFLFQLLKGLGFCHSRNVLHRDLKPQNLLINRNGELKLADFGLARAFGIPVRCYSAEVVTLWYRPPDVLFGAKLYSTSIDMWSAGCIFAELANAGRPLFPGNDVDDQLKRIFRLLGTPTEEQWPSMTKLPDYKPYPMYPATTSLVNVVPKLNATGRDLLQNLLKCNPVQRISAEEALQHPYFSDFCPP
Sequence of Cyclin-dependent kinase 5/CDK5 activator 1 (Homo sapiens) (Q15078 99-307 partner limits assumed): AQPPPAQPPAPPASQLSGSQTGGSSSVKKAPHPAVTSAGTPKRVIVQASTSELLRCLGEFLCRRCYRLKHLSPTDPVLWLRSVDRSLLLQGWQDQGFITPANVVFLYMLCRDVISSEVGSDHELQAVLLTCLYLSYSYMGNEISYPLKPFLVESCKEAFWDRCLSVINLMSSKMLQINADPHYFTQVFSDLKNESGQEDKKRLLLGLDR
Sequence of Vascular endothelial growth factor receptor 2 (Homo sapiens) (P35968 whole entry): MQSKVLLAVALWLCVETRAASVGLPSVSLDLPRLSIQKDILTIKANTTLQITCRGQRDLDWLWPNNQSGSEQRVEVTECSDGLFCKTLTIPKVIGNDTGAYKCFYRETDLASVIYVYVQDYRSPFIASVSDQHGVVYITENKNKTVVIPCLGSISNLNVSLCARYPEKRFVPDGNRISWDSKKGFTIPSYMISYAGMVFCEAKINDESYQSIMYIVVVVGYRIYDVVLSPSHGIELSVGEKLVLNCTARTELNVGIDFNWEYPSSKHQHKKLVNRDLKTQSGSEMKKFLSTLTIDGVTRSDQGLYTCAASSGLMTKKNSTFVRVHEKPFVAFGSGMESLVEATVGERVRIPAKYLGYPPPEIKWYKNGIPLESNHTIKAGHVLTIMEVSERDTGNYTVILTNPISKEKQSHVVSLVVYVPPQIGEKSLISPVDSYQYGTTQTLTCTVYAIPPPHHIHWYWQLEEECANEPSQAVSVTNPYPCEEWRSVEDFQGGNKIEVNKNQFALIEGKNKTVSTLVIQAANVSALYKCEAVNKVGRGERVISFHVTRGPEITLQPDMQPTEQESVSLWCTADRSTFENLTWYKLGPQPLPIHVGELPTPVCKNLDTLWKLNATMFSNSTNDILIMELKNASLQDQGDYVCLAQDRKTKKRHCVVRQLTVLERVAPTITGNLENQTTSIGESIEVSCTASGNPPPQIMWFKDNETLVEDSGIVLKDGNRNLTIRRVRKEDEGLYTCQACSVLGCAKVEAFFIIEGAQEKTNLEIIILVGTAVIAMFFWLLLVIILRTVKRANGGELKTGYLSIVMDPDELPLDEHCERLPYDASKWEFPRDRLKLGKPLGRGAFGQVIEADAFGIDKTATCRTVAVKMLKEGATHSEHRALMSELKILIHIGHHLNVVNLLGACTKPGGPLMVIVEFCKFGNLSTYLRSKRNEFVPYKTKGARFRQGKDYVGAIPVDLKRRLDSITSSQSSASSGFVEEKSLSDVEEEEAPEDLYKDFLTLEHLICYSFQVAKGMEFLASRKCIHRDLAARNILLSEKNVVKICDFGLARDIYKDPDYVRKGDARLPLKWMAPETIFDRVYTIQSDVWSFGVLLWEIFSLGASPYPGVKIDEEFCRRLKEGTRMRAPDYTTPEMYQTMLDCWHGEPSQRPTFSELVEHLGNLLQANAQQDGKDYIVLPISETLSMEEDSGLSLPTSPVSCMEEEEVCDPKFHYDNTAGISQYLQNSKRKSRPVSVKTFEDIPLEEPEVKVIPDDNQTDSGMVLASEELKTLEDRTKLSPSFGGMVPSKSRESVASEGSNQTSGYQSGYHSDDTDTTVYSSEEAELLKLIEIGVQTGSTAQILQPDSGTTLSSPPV
Sequence of Platelet-derived growth factor receptor beta (Homo sapiens) (P09619 whole entry): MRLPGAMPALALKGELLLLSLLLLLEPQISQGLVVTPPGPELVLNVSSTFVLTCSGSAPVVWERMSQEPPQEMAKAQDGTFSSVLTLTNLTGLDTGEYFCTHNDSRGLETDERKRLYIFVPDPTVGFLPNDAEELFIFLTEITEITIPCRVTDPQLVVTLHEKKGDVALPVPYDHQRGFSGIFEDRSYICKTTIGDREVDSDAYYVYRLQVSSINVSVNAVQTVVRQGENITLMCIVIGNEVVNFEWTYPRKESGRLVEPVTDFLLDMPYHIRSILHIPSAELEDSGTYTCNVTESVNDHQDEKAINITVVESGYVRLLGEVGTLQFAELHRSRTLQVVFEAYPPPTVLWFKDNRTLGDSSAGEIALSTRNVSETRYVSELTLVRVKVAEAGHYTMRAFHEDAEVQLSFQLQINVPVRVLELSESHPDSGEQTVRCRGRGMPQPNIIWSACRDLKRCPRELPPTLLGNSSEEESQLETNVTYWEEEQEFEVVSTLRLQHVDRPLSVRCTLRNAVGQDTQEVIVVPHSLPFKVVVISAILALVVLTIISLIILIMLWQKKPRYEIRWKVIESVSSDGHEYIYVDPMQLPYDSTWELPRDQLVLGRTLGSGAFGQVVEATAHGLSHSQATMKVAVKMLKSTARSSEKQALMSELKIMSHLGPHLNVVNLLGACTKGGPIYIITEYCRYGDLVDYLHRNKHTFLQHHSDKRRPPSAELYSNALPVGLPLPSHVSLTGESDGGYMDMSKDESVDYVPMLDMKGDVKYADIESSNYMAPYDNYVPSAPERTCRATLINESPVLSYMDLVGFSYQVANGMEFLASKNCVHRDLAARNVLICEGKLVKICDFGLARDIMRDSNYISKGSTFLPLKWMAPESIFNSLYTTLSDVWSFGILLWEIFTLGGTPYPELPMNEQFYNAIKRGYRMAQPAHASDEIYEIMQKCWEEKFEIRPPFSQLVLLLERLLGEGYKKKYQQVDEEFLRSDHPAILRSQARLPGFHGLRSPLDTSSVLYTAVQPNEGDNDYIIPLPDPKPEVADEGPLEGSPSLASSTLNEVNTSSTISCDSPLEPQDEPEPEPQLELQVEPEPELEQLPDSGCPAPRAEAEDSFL
Sequence of Dual specificity protein kinase CLK1 (Mus musculus) (P22518 whole entry, looked up): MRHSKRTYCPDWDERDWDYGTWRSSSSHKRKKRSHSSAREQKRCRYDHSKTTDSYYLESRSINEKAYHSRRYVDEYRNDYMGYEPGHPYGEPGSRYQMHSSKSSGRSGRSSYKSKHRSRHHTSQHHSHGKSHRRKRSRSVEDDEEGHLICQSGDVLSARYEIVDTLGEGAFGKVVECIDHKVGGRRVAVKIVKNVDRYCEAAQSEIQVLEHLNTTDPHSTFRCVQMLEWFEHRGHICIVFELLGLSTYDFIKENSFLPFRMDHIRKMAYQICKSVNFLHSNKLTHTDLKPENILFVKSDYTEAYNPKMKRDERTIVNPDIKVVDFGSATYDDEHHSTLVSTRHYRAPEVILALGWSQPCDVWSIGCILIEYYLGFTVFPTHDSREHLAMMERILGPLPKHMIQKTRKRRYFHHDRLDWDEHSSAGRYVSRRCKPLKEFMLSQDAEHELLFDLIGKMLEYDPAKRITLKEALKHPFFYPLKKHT
Sequence of Phosphatidylinositol 4,5-bisphosphate 3-kinase catalytic subunit alpha isoform (P42336 whole entry, the tested form may be a part, canonical isoform): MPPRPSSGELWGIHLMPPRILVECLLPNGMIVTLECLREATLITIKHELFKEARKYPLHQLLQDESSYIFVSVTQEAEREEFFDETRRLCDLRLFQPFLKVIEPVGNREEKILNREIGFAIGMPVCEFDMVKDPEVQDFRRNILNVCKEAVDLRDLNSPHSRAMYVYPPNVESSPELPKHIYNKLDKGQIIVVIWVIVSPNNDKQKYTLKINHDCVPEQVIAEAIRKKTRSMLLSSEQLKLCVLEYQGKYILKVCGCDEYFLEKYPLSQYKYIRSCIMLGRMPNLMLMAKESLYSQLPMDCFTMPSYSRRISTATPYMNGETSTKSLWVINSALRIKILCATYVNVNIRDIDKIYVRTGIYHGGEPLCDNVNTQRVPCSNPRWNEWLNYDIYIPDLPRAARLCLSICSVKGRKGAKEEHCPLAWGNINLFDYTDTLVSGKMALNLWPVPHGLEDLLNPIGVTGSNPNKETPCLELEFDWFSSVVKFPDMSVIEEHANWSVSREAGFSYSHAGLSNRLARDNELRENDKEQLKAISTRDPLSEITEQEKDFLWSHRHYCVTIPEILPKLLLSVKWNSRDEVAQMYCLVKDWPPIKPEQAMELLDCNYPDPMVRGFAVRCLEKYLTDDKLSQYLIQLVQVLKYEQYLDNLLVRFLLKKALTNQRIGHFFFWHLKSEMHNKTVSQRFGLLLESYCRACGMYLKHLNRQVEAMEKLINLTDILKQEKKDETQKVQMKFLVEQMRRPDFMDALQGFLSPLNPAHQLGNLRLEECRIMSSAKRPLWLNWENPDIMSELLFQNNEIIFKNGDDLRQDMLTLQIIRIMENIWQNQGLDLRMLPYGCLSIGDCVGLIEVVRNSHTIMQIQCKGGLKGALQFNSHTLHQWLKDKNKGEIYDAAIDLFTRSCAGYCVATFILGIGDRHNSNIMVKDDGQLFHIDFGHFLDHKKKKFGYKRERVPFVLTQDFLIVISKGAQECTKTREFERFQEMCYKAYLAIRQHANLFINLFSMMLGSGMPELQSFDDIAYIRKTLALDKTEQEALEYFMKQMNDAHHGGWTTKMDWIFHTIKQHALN
Sequence of Receptor-interacting serine/threonine-protein kinase 3 (Homo sapiens) (Q9Y572 whole entry, looked up): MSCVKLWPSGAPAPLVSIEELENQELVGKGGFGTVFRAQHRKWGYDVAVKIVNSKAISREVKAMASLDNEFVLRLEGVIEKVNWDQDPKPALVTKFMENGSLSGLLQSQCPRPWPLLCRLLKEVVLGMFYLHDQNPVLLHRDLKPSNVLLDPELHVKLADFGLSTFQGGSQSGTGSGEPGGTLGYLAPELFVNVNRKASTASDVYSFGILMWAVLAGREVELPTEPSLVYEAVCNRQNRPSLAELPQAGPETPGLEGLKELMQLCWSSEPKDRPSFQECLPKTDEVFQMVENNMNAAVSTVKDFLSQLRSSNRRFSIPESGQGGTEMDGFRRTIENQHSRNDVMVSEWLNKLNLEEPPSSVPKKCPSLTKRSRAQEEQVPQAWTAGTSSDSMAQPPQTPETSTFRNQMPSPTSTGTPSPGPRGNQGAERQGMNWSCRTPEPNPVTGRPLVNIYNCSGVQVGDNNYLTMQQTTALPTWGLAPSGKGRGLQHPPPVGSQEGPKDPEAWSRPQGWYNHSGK

In general, IC50 refers to the concentration needed to halve the response being measured. A higher IC50 goes with lower potency. Consider `CS(=O)(=O)N1CCN(Cc2cc3nc(-c4cccc5[nH]ncc45)nc(N4CCOCC4)c3s2)CC1` [PICTILISIB], for which the IC50 was 2 µM in the data set with MCF7 [1]; 1.2 µM in the data set with T47D [2]; over 30 µM with MDA-MB-231 [3]; 1.3 µM in the data set with HCC1954 [4]; 0.9 µM with SK-BR-3. In the data set with HCC1954 [5], the Activity was found to be 350 mm3.

For `Cc1nc2nc(Oc3ccccc3)cnc2cc1NC(=O)Nc1ccccc1`, the Activity in the data set on MCF7 [6], in the data set on MCF7 [7], in the data set with T47D [8], with T47D [9], in the data set with MDA-MB-231 [10] and with MDA-MB-231 [11] was over 50% each time. Besides, the Activity in the data set with HCC1954 [12] and in the data set with HCC1954 [13] was over 50% in each case. In addition, the IC50 in the data set with MCF7 [1] amounted to 7 µM; in the data set with T47D [2], 9.4 µM; with MDA-MB-231 [3], 5.1 µM; with HCC1954 [4] it was 5.3 µM; with SK-BR-3, 7.2 µM. In addition, the inhibition entry (in data set [14]; in data set [15]; in [16]; in data set [17]; in the data set listed under Sus scrofa; in data set [18]) was “inactive” each time. Also, the inhibition entry in data set [19], in data set [20], in data set [21], in data set [22], in [23] and in data set [24] was “inactive” each time. Also, the inhibition entry in data set [25] is “inactive”.

The term Cmax denotes the maximum level reached in the sampled fluid or tissue. The Tmax is the time from dosing to the highest level. The term AUC(0-t) denotes exposure summed from dosing to a finite time, without extrapolation to infinity. The low end stands for less exposure, the high end for more exposure. Take `Cc1nc2nc(Sc3ccccc3)cnc2cc1NC(=O)c1ccccc1`: the Activity in the data set with MCF7 [6], with MCF7 [7], in the data set on T47D [8], with T47D [9], in the data set with MDA-MB-231 [10] and in the data set on MDA-MB-231 [11] was over 50% throughout. The Activity in the data set with HCC1954 [12] was over 50%; in the data set on HCC1954 [13] it was over 50%; in the data set with Mus musculus [32] it was “Non-Toxic”; in the data set on Mus musculus [33], “Non-Toxic”. Besides, the IC50 in the data set on MCF7 [1] worked out at 4 µM; in the data set with T47D [2], 1.5 µM; in the data set on MDA-MB-231 [3], 4 µM; in the data set on HCC1954 [4], 4.5 µM; in the data set on SK-BR-3, 3.7 µM. Further, the inhibition result (in [14]; in [15]; in data set [16]; in data set [17]; in the data set filed under Sus scrofa; in [18]) was “inactive” throughout. Further, the inhibition result in data set [19], in data set [20], in data set [21], in data set [22], in [23] and in data set [24] was “inactive” in each case. Moreover, in data set [25], the inhibition entry was “inactive”. The Cmax turned out to be 320 nM in [26] and 520 nM in data set [27]. The results for the Tmax in [28] and in [29] were 15 min and 30 min, respectively. Besides, the AUC(0-t) at 8 h was 0.43 µM·h in data set [30] and 0.57 µM·h in [31].
